Like-named read-outs stand apart in the source and are kept apart here.
What was measured:
tomato seedlings = assay: Tomato seedlings in pots sprayed 3 times: height, fresh and dry weight, chlorophyll (Example 3); assay type: in vivo; settings: 80 mg/L, benzothiadiazole salt 30 mg/L; for Average plant height, before second treatment / Average plant height, before third treatment / Average plant height, initial height, before first treatment / Chlorophyll content (SPAD), a day after treatment #1 / Chlorophyll content (SPAD), a day after treatment #2 / Chlorophyll content (SPAD), a day after treatment #3 / Plant height increase / Chlorophyll content (SPAD), Treatment #1 / Chlorophyll content (SPAD), Treatment #2 / Chlorophyll content (SPAD), Treatment #3: chitosan lactate 50 mg/l; for Average dry mass / Average fresh mass: above-ground part; for Chlorophyll content (SPAD), Treatment #1: before treatment #1; for Chlorophyll content (SPAD), Treatment #2: before treatment #2; for Chlorophyll content (SPAD), Treatment #3: before treatment #3
Excerpt: Tomato seedlings (12 according to development scale BBCH) were planted into pots with peat substrate (P9 pots having 0.5 l). Plant pots were placed in greenhouse and cultivated for a 1 and a half month. Plants were sprayed with tested substance 3 times, in 10-day interval. […] 2-methoxyethyl(trimethyl)-ammonium benzo[1,2,3]thiadiazole-7-carboxylate; 3. […] 2-methoxyethyl(trimethyl)ammonium 3-chlorosalicylate; 7. 2-ethoxyethyl(trimethyl)ammonium 3-chlorosalicylate; 8. ethyl(trimethyl)ammonium 3-chlorosalicylate at a concentration od 80 mg/l. Plants were sprayed with tested substances three times at 10-day intervals. Plants in peat substrate treated with water only were the control. During the course of the experiment, the height of the plants was measured, and at the end the fresh and dry weight of the aboveground part was evaluated. Moreover chlorophyll content was measured. The experiment was conducted in 4 repetitions with 5 plants in each (a total of 20 plants per each variant of treatment).

lettuce = tested on: lettuce
Excerpt: The purpose of the study was to determine the effect of foliar spraying with test solutions on lettuce (Lactuca sativa L. ‘Zeralda’) plants. The plants were sprayed 7 and 14 days after transplanting to a permanent site. […] After another 7 days, drought stress was induced (plants in the selected combinations were not watered until symptoms of leaf wilting appeared), followed by proper watering of the plants again. Control plants were watered in turn to a constant weight. After 3 days after re-watering, chlorophyll fluorescence was measured (OJIP test, methodology described, among others, in Kalaji H. M., 2011. Impact of abiotic stress factors on chlorophyll fluorescence in plants of selected barley cultivars Hordeum vulgare L. SGGW Publishing House, Warsaw [https://badanieroslin.pl/wp-content/uploads/2018/11/Oddzialywanie-abiotycznych-czynnikow. . . ..pdf]) and the condition of the plants was assessed.
The measurement was carried out after inducing drought stress, followed by re-watering the plants to a constant weight. […] This parameter is lowered by stresses.

[1] = tested on: tobacco mosaic virus (TMV); assay: Direct effect on TMV infectivity: virus incubated with substance, then Xanthi tobacco leaves infected (Example 21); assay type: in vivo; settings: TMV about 3 μg/ml mixed 1:1 with substance 80 mg/L, 30 min; 5 days after infection; control 100
Protocol: Sodium 3-chlorosalicylate; 5. Potassium 3-chlorosalicylate; 6. Calcium 3-chlorosalicylate; 7. Magnesium 3-chlorosalicylate (concentration 80 mg/L), in a 1:1 ratio and incubated for 30 min at room temperature. The control variant consisted of TMV incubated in water. All virus suspensions were used to mechanically infect Xanthi tobacco leaves, whose reaction to infection is manifested in easily quantifiable local necrotic spots (hypersensitivity, local infection).
After 5 days, the area of leaf covered by necrotic spots compared to total leaf area was calculated for plants of all variants of treatment.

[2] = tested on: Pseudomonas syringae pv. Tomato; assay: Direct effect on bacterial infectivity (Example 22); assay type: in vivo; settings: tobacco plant, 5 days after infection with solution of bacteria and test substance; control 100
Protocol: Proceeding as in example 21, Pseudomonas syringae pv. Tomato bacteria were tested and incubated in bacterial medium.

powdery mildew fungus = assay: Direct effect on fungal infectivity (Example 23); assay type: in vivo; settings: tobacco plant, 5 days after infection with solution of fungus and test substance; control 100
Protocol: Proceeding as in Example 21, the test was performed on the powdery mildew fungus, which was then incubated on the medium.

[3] = tested on: Tobacco Mosaic Virus (TMV); assay: Protection of tobacco against TMV infection by watering twice (Example 24); assay type: in vivo, Nicotiana tabacum cv. Xanthi; settings: watered twice, 7 days after infection
Protocol: Tobacco plants (Nicotiana tabacum) cv. […] 3,5-dichlorosalicylate of choline; 4. 3-chlorosalicylate of sodium, 5. 3-chlorosalicylate of potassium, 6. 3-chlorosalicylate of calcium, 7. 3-chlorosalicylate of magnesium at a concentration of 10 or 40 or 80 mg/L, at one-week intervals. The control was tobacco plants watered only with water. One week after the second treatment of the plants with the preparation, mechanical infection of the leaves with Tobacco Mosaic Virus (TMV) was carried out. This consisted of rubbing carborundum-sprinkled leaves several times with fingers soaked in a suspension of purified virus at a concentration of about 2 μg/ml. In order to evaluate the effectiveness of the tested substances in protection against biotic stresses, the TMV model and tobacco cv. Xanthi characterized by an interaction in the form of hypersensitivity phenomenon, i.e. the formation of easily quantifiable necrotic spots, were used.

Brome Mosaic Virus (BMV) = assay: Protection of barley against Brome Mosaic Virus infection by watering (Examples 28 and 29); assay type: in vivo; settings: 2 weeks after infection
[4] = Control (watered), double application, 3-chlorosalicylate 100 mg/L, benzothiadiazole salt 50 mg/L
[5] = Control (watered), single application, 50 mg/L
[6] = Drought, double application, 3-chlorosalicylate 100 mg/L, benzothiadiazole salt 50 mg/L
[7] = Drought, single application, 50 mg/L
[8] = double application, 3-chlorosalicylate 100 mg/L, benzothiadiazole salt 50 mg/L

## C[N+](C)(C)CCO.O=C([O-])c1cccc2nnsc12
Tomato seedlings
  Average plant height, before second treatment: 146.7 b mm
  Average plant height, before third treatment: 337.1 b mm
  Average plant height, initial height, before first treatment: 60.5 a mm
  Chlorophyll content (SPAD), a day after treatment #1: 76.1 b
  Chlorophyll content (SPAD), a day after treatment #2: 81.3 c
  Chlorophyll content (SPAD), a day after treatment #3: 78.2 b
  Plant height increase: 276.6 b mm
  Average dry mass: 87.5 b g
  Average fresh mass: 333.5 b g
  Chlorophyll content (SPAD), Treatment #1: 49.6 a
  Chlorophyll content (SPAD), Treatment #2: 47.5 a
  Chlorophyll content (SPAD), Treatment #3: 50.1 a
lettuce; [4]
  ABS/RC: 1.46 b
  DIo/RC: 0.28 b
  ETo/RC: 0.93 ab
  F0: 7100 b
  FM: 45265 b
  FM/F0: 6.52 ab
  Fv: 38164 b
  Fv/F0: 5.52 abc
  Fv/FM: 0.85 abc
  Pi_Abs (PSII functioning index calculated on the basis of energy absorption): 10.33 ab
  TRo/RC: 1.74 b
lettuce; [5]
  ABS/RC: 1.45 b
  DIo/RC: 0.28 b
  ETo/RC: 0.87 ab
  F0: 6762 b
  FM: 41874 b
  FM/F0: 6.19 abc
  Fv: 35112 b
  Fv/F0: 5.19 abc
  Fv/FM: 0.84 abc
  Pi_Abs (PSII functioning index calculated on the basis of energy absorption): 4.47 a
  TRo/RC: 1.74 b
lettuce; [6]
  ABS/RC: 1.14 a
  DIo/RC: 0.20 a
  ETo/RC: 0.84 ab
  F0: 4965 a
  FM: 34715 a
  FM/F0: 6.99 bc
  Fv: 29750 b
  Fv/F0: 5.99 ab
  Fv/FM: 0.86 c
  Pi_Abs (PSII functioning index calculated on the basis of energy absorption): 12.61 days
  TRo/RC: 1.34 a
lettuce; [7]
  ABS/RC: 1.12 a
  DIo/RC: 0.24 a
  ETo/RC: 0.75 a
  F0: 5675 a
  FM: 32147 a
  FM/F0: 5.67 a
  Fv: 26472 a
  Fv/F0: 4.67 a
  Fv/FM: 0.83 a
  Pi_Abs (PSII functioning index calculated on the basis of energy absorption): 7.47 b
  TRo/RC: 1.36 a
lettuce; [8]
  % dry matter (leaf), Average: 4.67 b %
  % dry matter (leaf), Drought: 3.61 a %
  % dry matter (leaf), Watered: 5.73 c %
  Head and root weight, Average: 69.4 a g/plant
  Head and root weight, Drought: 70.6 ab g/plant
  Head and root weight, Watered: 69.2 a g/plant
  Head weight, Average: 53.4 a g/plant
  Head weight, Drought: 51.6 ab g/plant
  Head weight, Watered: 51.6 b g/plant
  RWC (relative water content), Watered: 74.3 b %
  RWC, Average: 75.0 a %
  RWC, Drought: 64.0 a %
lettuce; single application, 50 mg/L
  % dry matter (leaf), Average: 3.75 b %
  % dry matter (leaf), Drought: 3.59 b %
  % dry matter (leaf), Watered: 3.51 b %
  Head and root weight, Average: 84.6 b g/plant
  Head and root weight, Drought: 84.4 bc g/plant
  Head and root weight, Watered: 85.2 c g/plant
  Head weight, Average: 65.1 b g/plant
  Head weight, Drought: 62.5 c g/plant
  Head weight, Watered: 65.3 c g/plant
  RWC (relative water content), Watered: 77.1 b %
  RWC, Average: 74.5 a %
  RWC, Drought: 71.5 ab %

## C[N+](C)(C)CCO.O=C([O-])c1cccc(Cl)c1O [choline 3-chlorosalicylate]
Tomato seedlings
  Average plant height, before second treatment: 143.2 b mm
  Average plant height, before third treatment: 345.1 b mm
  Average plant height, initial height, before first treatment: 59.3 a mm
  Chlorophyll content (SPAD), a day after treatment #1: 74.6 b
  Chlorophyll content (SPAD), a day after treatment #2: 76.2 b
  Chlorophyll content (SPAD), a day after treatment #3: 79.3 b
  Plant height increase: 285.8 b mm
  Average dry mass: 83.1 b g
  Average fresh mass: 327.7 b g
  Chlorophyll content (SPAD), Treatment #1: 48.5 a
  Chlorophyll content (SPAD), Treatment #2: 48.3 a
  Chlorophyll content (SPAD), Treatment #3: 49.5 a
lettuce; [4]
  ABS/RC: 1.48 b
  DIo/RC: 0.24 a
  ETo/RC: 1.08 b
  F0: 4877 a
  FM: 34278 a
  FM/F0: 7.32 c
  Fv: 29401 a
  Fv/F0: 6.32 c
  Fv/FM: 0.86 c
  Pi_Abs (PSII functioning index calculated on the basis of energy absorption): 12.74 days
  TRo/RC: 1.72 b
lettuce; [6]
  ABS/RC: 1.20 a
  DIo/RC: 0.24 a
  ETo/RC: 0.81 a
  F0: 5524 a
  FM: 33908 a
  FM/F0: 6.16 ab
  Fv: 28384 b
  Fv/F0: 5.16 ab
  Fv/FM: 0.84 ab
  Pi_Abs (PSII functioning index calculated on the basis of energy absorption): 7.77 b
  TRo/RC: 1.44 a
lettuce; [8]
  % dry matter (leaf), Average: 3.72 b %
  % dry matter (leaf), Drought: 3.55 b %
  % dry matter (leaf), Watered: 3.96 b %
  Head and root weight, Average: 72.5 a g/plant
  Head and root weight, Drought: 71.7 abc g/plant
  Head and root weight, Watered: 73.2 abc g/plant
  Head weight, Average: 51.3 a g/plant
  Head weight, Drought: 52.8 b g/plant
  Head weight, Watered: 50.6 ab g/plant
  RWC (relative water content), Watered: 73.2 ab %
  RWC, Average: 73.3 a %
  RWC, Drought: 71.9 ab %
[1]
  % of necrotic spots: 98%
[2]
  % of necrotic spots: 99%
Powdery mildew fungus
  % of necrotic spots: 100%
[3]; 10 mg/L
  % reduction in necrotic spots compared to control: 80%
[3]; 40 mg/L
  % reduction in necrotic spots compared to control: 100%
[3]; 80 mg/L
  % reduction in necrotic spots compared to control: 100%
Brome Mosaic Virus (BMV); 10 mg/L, watered
  % reduction in necrotic spots compared to control: 69%
Brome Mosaic Virus (BMV); 80 mg/L, watered twice
  % reduction in necrotic spots compared to control: 100%
Brome Mosaic Virus (BMV); 80 mg/L, watered twice, listed as 2-hydroxyethyl(trimethyl)ammonium 3-chlorosalicylate
  % reduction in necrotic spots compared to control: 98%

Reference: patent US20260041093A1, “Ionic Derivatives Of Aromatic Carboxylic Acid For Use As Plant Stimulants, Method For Stimulating Plants And Use Of These Derivatives For Manufacturing Compositions For Stimulating Plants” (FUNDACJA UNIWERSYTETU IM. ADAMA MICKIEWICZA W POZNANIU, priority 2022, published 2026)
